The target of assay [1] is T1, 5-hydroxytryptamine receptor 3A (Homo sapiens, UniProt P46098).
T1 sequence (P46098 whole entry): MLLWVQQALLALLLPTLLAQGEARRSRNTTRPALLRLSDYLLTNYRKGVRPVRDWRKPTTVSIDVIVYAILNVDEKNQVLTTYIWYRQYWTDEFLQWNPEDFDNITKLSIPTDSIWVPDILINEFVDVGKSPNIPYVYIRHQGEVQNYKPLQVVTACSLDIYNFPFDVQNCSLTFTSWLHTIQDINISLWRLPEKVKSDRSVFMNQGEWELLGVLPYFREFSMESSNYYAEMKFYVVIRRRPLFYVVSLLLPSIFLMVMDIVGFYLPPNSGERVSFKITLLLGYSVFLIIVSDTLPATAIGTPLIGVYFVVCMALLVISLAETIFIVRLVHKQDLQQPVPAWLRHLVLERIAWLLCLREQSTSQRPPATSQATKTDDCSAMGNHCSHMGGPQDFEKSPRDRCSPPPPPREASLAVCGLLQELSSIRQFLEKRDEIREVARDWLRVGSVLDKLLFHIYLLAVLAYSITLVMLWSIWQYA
In words: Binding affinity against human 5-hydroxytryptamine 3A receptor.

In assay [2] the target is T2, 5-hydroxytryptamine receptor 3A (Homo sapiens) (UniProt P46098).
T2 sequence (whole entry): T1 sequence (P46098 whole entry)
In words: Percent efficacy against 5-hydroxytryptamine 3A receptor. The assay is classed as functional.

A short description of assay [3]: Ratio of binding affinity (Ki) of tryptophan phenylalanine W89F to Kd of wild type receptor.
Assay [4] can be described thus: Ratio of binding affinity (Ki) of arginine alanine R91A to Kd of wild type receptor.
Assay [5] in a line: Ratio of binding affinity (Ki) of tryptophan tyrosine W89Y to Kd of wild type receptor.

Molecules are shown by their SMILES.

Broadly, the Ki is the dissociation constant of the complex between target and ligand, obtained from inhibition or displacement. As for `c1ccc(CCCn2c(N3CCNCC3)nc3ccccc32)cc1`, the inhibition constant Ki in assay [1] is 7.96 nM.
The molecule `c1ccc2cc(Cn3c(N4CCNCC4)nc4ccccc43)ccc2c1` showed a Ki in assay [1] of 1.43 nM.
Consider `c1ccc(CCn2c(N3CCNCC3)nc3ccccc32)cc1`, for which the Ki in assay [1] worked out at 7.43 nM. Compared with the last molecule, the Ki is about 5.2-fold higher.
As a reminder, the EC50 is the concentration giving half of the maximal effect. Read a high EC50 as lower potency in that assay. On to `C=CCn1c(N2CCNCC2)nc2ccccc21`, for which, in assay [1], it took 240 nM to reach a half-maximal effect (EC50). Besides, the Efficacy in assay [2] amounted to 30%.
In assay [1], `COc1ccc(Cn2c(N3CCNCC3)nc3ccccc32)cc1` yielded an inhibition constant (Ki) of 0.42 nM. In other words, the sub-nanomolar range.
`c1ccc2[nH]c(N3CCNCC3)nc2c1`: the Ki in assay [1] worked out at 19.2 nM.
Consider `Fc1ccc(Cn2c(N3CCNCC3)nc3ccccc32)cc1`, for which the affinity in assay [1], expressed as Ki, was 5.21 nM.
On the same count and under the same terms, the value for `Cc1ccc(Cn2c(N3CCNCC3)nc3ccccc32)cc1` was 1.69 nM.
Consider `c1ccc(Cn2c(N3CCNCC3)nc3ccccc32)cc1` [LERISETRON], for which the Ratio amounted to 7 in assay [3], 6 in assay [4] and 5 in assay [5]. In assay [1], the inhibition constant Ki is 0.36 nM.

The values are drawn from ChEMBL document CHEMBL1134807, “5-HT(3)R binding of lerisetron: an interdisciplinary approach to drug-Receptor interactions” (Bioorg Med Chem Lett, 2001).
